Each structure is given as a SMILES string. Where a SMILES comes first, the peptide text is derived from it.

The record followed here is paper PMC13659687, “Cloning, expression, tertiary structure, activity characteristics, design of inhibitor, hydrolysis and inhibition mechanisms analysis of carp adipose triglyceride lipase (ATGL)” (Food Chemistry: Molecular Sciences, 2026).

This data set can be described thus: Maximum solubility of the small peptide. The format is physicochemical. As to conditions: neutral pH.

As to `CC[C@H](C)[C@H](NC(=O)[C@H](CC(C)C)NC(=O)[C@@H](N)CCCCN)C(=O)N[C@@H](CCSC)C(=O)N[C@H](C(=O)O)C(C)C` [Lys-Leu-Ile-Met-Val] (H-KLIMV-OH), the maximum solubility result runs as follows: (4 °C) “approximately 0.4 mg/mL”; (room temperature) “approximately 0.7 mg/mL”.
